The values that follow come from patent EP0425235B1, “Cytotoxic agents comprising maytansinoids and their therapeutic use” (IMMUNOGEN INC, priority 1989, dated 1991).

One series concerns L1210 cells. The following applies: L1210 cells in vitro; cited from earlier work.
For the next series, the system named is A498 (Renal carcinoma). Description: In vitro cytotoxicity, clonogenic assay. The class given is cell-based, human. The following applies: for IC50: Homo sapiens, A498, 24hr exposure. As to the method:
(§1) Since the methyldithio-maytansinoids are even more toxic than maytansine to solid tumor cell lines like KB and SKBR3, a wider panel of solid tumor cell lines was tested in a manner analogous to that described above to see whether this was a general phenomenon.
(§2) Cells of the human promyelocytic leukemia cell line, HL-60 (ATCC CCL 240) and the Burkitt's lymphoma cell line Namalwa (ATCC CRL 1432) were grown as suspension cultures in RPMI-1640 medium supplemented with 10% fetal calf serum and 2 mM L-glutamine. All other cell lines described below were grown as adherent cultures. Human epidermoid carcinoma cell line, KB (ATCC CCL 17), human renal carcinoma cell line A498 (ATCC HTB 44), human colon adenocarcinoma cell lines SW620 (ATCC CCL 227) and HT-29 (ATCC HTB 38) were grown in RPMI-1640 medium supplemented with 10% fetal calf serum and 2 mM L-glutamine. Human breast carcinoma SKBR3 cells (ATCC HTB 30) were grown in DMEM supplemented with 15% fetal calf serum containing 2 mM glutamine and the human ovarian adenocarcinoma cell line OVCAR3 (ATCC HTB 161) was grown in RPMI-1640 medium supplemented with 10% fetal calf serum containing 10 µg/ml insulin and 2 mM L-glutamine.
(§3) Cytotoxicity assays were performed in the respective media described above. The cytotoxicity of the maytansinoids and their antibody conjugates to HL-60 and Namalwa cells was measured by back-extrapolation of cell proliferation curves. Cytotoxicity of these compounds to the rest of the cell lines was determined using a clonogenic assay as previously described.

Series [1] concerns Ovcar3 (Ovarian carcinoma). As to the kind of experiment: In vitro cytotoxicity, clonogenic assay. The following applies: for IC50: Homo sapiens, OVCAR-3, 24 h, read-out: IC50(24hr.exposure). As for the experimental part:
as §2, §3

Series [2] concerns HL60(Promyelocytic leukemia). Description: In vitro cytotoxicity, back-extrapolation of cell proliferation curves. The conditions noted are these: Homo sapiens, HL-60; HL60, 24hr exposure. The class given is cell-based. As for the experimental part:
as §1
as §2, with “Human breast carcinoma SKBR3 cells (ATCC HTB 30) were grown in DMEM supplemented with 15% fetal calf serum containing 2 mM glutamine and the human ovarian adenocarcinoma cell line OVCAR3 (ATCC HTB 161) was grown in RPMI-1640 medium supplemented with 10% fetal calf serum containing 10 µg/ml insulin and 2 mM L-glutamine.” left out
as §3

The subject of series [3] is P388 lymphocytic leukemia system. The following applies: cited from earlier work.
In series [4] the test system is human acute lymphoblastic leukemia line C.E.M. The conditions noted are these: cited from earlier work.
The subject of series [5] is Namalwa (Burkitt's lymphoma). As to the kind of experiment: In vitro cytotoxicity, growth back-extrapolation. Format: cell-based, human.
Excerpt: (§4) Cytotoxicity of the maytansinoids and their antibody conjugates to non-adherent cell lines such as Namalwa and HL-60 can be measured by back-extrapolation of cell proliferation curves as described in Goldmacher et al, 135 J. Immunol. 3648-3651 (1985). Cytotoxicity of these compounds to adherent cell lines such as SKBR3 and KB can be determined by clonogenic assays as described in Goldmacher et al, 102 J. Cell Biol. 1312-1319 (1986).
(§5) The disulfide-containing maytansinoid drugs of the invention were evaluated for their ability to suppress proliferation of various human tumor cell lines in vitro. Two adherent cell lines KB (human epidermoid carcinoma) and SKBR3 (human breast tumor) and the non-adherent cell line, Namalwa (Burkitt's lymphoma) were used for the assessment of cytotoxicity of these compounds. Cells were exposed to the compounds for 24 hours and the surviving fractions of cells were measured in direct assays.
as §2, §3

Series [6] concerns SKBR3 (human breast tumor). Description: In vitro cytotoxicity, clonogenic assay (plating efficiency). The class given is cell-based.
Excerpt: as §4
The disulfide-containing maytansinoid drugs of the invention were evaluated for their ability to suppress proliferation of various human tumor cell lines in vitro. Two adherent cell lines KB (human epidermoid carcinoma) and SKBR3 (human breast tumor) and the non-adherent cell line, Namalwa (Burkitt's lymphoma) were used for the assessment of cytotoxicity of these compounds. […]
as §2, §3

The subject of series [7] is KB (human epidermoid carcinoma). Described as above. Format: cell-based. The following applies: for fold more toxic than maytansine: KB and SKBR3 cells, ratio of IC50 values; for times less toxic than L counterpart: D-aminoacyl isomer vs L counterpart (6c, 6e), all three cell lines (KB, SKBR3, Namalwa).
Excerpt: as §4, §5, §2, §3

For series [8], the system named is SW620 (Colon adenocarcinoma). Description: In vitro cytotoxicity, clonogenic assay. Format: cell-based, human. The conditions noted are these: for IC50: Homo sapiens, read-out: IC50(24hr.exposure). As to the method: as §2, §3
Series [9] has as its system P388, L1210, and LY5178 murine leukemic cell suspensions. The following applies: P388, L1210 and LY5178, P388 most sensitive; cited from earlier work.
Setting [10] is: Homo sapiens, 24 h, NAMALWA, 24 hour exposure, read-out: IC50.
Setting [11] is: Homo sapiens, 24 h, Namalwa, 24hr exposure (Table 2), read-out: IC50(24hr.exposure).
[12] abbreviates: Homo sapiens, SK-BR-3, 24 h, SKBR3, 24 hour exposure.
Where [13] appears, read: Homo sapiens, 24 h, KB, 24 hour exposure.

Structures are written as SMILES. Like-named read-outs stand apart in the source and are kept apart here.

As for `COc1cc2cc(c1Cl)N(C)C(=O)C[C@H](OC(=O)[C@H](C)N(C)C(C)=O)[C@]1(C)O[C@H]1[C@H](C)[C@@H]1C[C@@](O)(NC(=O)O1)[C@H](OC)/C=C/C=C(\C)C2` [Compound 1a, maytansine, reference compound], the “cells accumulating in mitosis” value with L1210 cells is reported as 67%. For the same compound, the surviving fraction with A498 (Renal carcinoma) (A498, at 1x10^-10 M) was found to be 100%; in series [8] (SW620, at 1x10^-10 M), 100%. The IC50 with A498 (Renal carcinoma) was more than 0.1 nM; in series [1], 0.1 nM; in series [2] it was 0.5 nM; in series [5] (setting [10]) it was 0.4 nM; in series [5] (setting [11]) it was 0.4 nM; in series [6] (Homo sapiens, SK-BR-3, 24 h, SKBR3, 24 hour exposure, read-out: IC50), 0.1 nM. In addition, the IC50 in [6] (Homo sapiens, SK-BR-3, 24 h, SKBR3, 24hr exposure (Table 2), read-out: IC50(24hr.exposure)) is 0.11 nM; in series [7] (Homo sapiens, 24 h, KB, 24 hour exposure, read-out: IC50) it was 0.03 nM; in series [7] (Homo sapiens, 24 h, KB, 24hr exposure (Table 2), read-out: IC50(24hr.exposure)), 0.034 nM; in series [8] (SW-620, SW620, 24hr exposure), more than 0.1 nM. Also, in [3], the “dosage range over which tumor growth was inhibited” value is 50- to 100 fold. Also, the “inhibited by concentrations as low as” value in [4] is on record as 10^-7 microgram/ml. In addition, the “inhibited at doses of” value in series [9] is 10^-3 to 10^-7 microgram/ml.
With `COc1cc2cc(c1Cl)N(C)C(=O)C[C@H](OC(=O)[C@H](C)N(C)C(=O)CCSSC)[C@]1(C)O[C@H]1[C@H](C)[C@@H]1C[C@@](O)(NC(=O)O1)[C@H](OC)/C=C/C=C(\C)C2` [Compound 6b], the IC50 is 0.1 nM in the series on A498 (Renal carcinoma); 0.05 nM in [1]; 0.8 nM in series [2]; 6 nM in [5] (setting [11]); not above 0.01 nM in series [6] (setting [12]); 0.011 nM in series [6] (SKBR3, 24 hour exposure). Besides, the IC50 in series [6] (SKBR3, 72hr exposure) was 1x10^-13 Molar; in series [7] (setting [13]), not above 0.01 nM; in series [7] (Homo sapiens, 24 h, read-out: IC50(24hr.exposure), KB, 24hr exposure (Table 2)) it was 0.011 nM; in series [8] (SW-620, 24 h) it was 0.04 nM. Also, in [1] (OVCAR3), the “cytotoxicity relative to maytansine” value is given as “twice as cytotoxic”. Further, the “fold more toxic than maytansine” value in [7] is 3-10 fold.
For `COc1cc2cc(c1Cl)N(C)C(=O)C[C@H](OC(=O)[C@H](C)N(C)C(=O)CCCSSC)[C@]1(C)O[C@H]1[C@H](C)[C@@H]1C[C@@](O)(NC(=O)O1)[C@H](OC)/C=C/C=C(\C)C2` [Compound 6c], the IC50 in series [5] (setting [10]) is not below 3 nM; in series [5] (NAMALWA, 24 hour exposure, read-out: IC50), 3.2 nM; in series [7] (setting [13]) it was not above 0.01 nM; in series [7] (KB, 24 hour exposure), 0.0085 nM. Besides, in [7], the “fold more toxic than maytansine” value is 3-10 fold.
Turning to `COc1cc2cc(c1Cl)N(C)C(=O)C[C@H](OC(=O)[C@@H](C)N(C)C(=O)CCCSSC)[C@]1(C)O[C@H]1[C@H](C)[C@@H]1C[C@@](O)(NC(=O)O1)[C@H](OC)/C=C/C=C(\C)C2` [Compound 6d], the figures for the IC50 in series [5] (setting [10]) and in series [7] (setting [13]) were 13 nM and 0.19 nM, respectively. For the same compound, the “times less toxic than L counterpart” value in series [7] is not below 20 times.
For the compound `COc1cc2cc(c1Cl)N(C)C(=O)C[C@H](OC(=O)[C@H](C)N(C)C(=O)CCSSc1ccccc1)[C@]1(C)O[C@H]1[C@H](C)[C@@H]1C[C@@](O)(NC(=O)O1)[C@H](OC)/C=C/C=C(\C)C2` [Compound 6e], the results for the IC50 in series [5] (setting [10]) and in series [7] (setting [13]) were 0.6 nM and 0.1 nM, respectively.
As for `COc1cc2cc(c1Cl)N(C)C(=O)C[C@H](OC(=O)[C@@H](C)N(C)C(=O)CCSSc1ccccc1)[C@]1(C)O[C@H]1[C@H](C)[C@@H]1C[C@@](O)(NC(=O)O1)[C@H](OC)/C=C/C=C(\C)C2` [Compound 6f], the IC50 in series [5] (setting [10]) is 8 nM; in series [7] (setting [13]), 2 nM. In addition, the “times less toxic than L counterpart” value in [7] is recorded as not below 20 times.
For the compound `COc1cc2cc(c1Cl)N(C)C(=O)C[C@H](OC(=O)[C@H](C)N(C)C(=O)CCS)[C@]1(C)O[C@H]1[C@H](C)[C@@H]1C[C@@](O)(NC(=O)O1)[C@H](OC)/C=C/C=C(\C)C2` [Compound 7b], the IC50 in series [5] (setting [10]) was 10 nM; in series [6] (setting [12]) it was less than 0.01 nM; in series [7] (setting [13]), 0.6 nM.
